Patent US20020082262A1, “Substituted bicyclic compounds for treating multidrug resistance” (priority 2000, published 2002)

The compounds below were run on NIH-MDR1-G185 cells (assay: Fluorescent Substrate Accumulation Assay (BODIPY-FL Taxol accumulation)). Details: MDR modulator 10 micromolar, BODIPY-FL Taxol 500 nM, 40 min at 37° C.; fluorescence in NIH-MDR1-G185 cells in presence / absence of modulator.
Assay type: cell-based
Experimental: Fluorescent Substrate Accumulation Assay NIH-MDR1-G185 cells (obtained from M. Gottesman, NIH) were harvested and resuspended in RPMI-1640 containing L-glutamine, 10% Cosmic Calf Serum and penicillin-streptomycin. Cell suspension aliquots of 175 microliters (1×10^5 cells) were added to individual wells of a 96 well microtiter plate and preincubated for 15 min at 37° C. with 20 microliters MDR modulator diluted in cell culture media to give a final concentration of 10 micromolar. Control wells received no modulating agent. BODIPY-FL Taxol (Molecular Probes, Eugene, Oreg.) was added to each well in 10 microliter aliquots to give a final concentration of 500 nM and cells were incubated for 40 min at 37° C. Cells were centrifuged at 100×g for 5 min at 4° C. and the cell pellet washed with 200 microliters cold PBS to remove fluorescent medium from wells. Cells were centrifuged once more, media removed, and cells resuspended in 200 microliters cold PBS. Fluorescence accumulation was measured in a fluorescence plate reader fitted with an excitation filter of 485 nm and an emission filter of 538 nm. BODIPY-FL taxol accumulation in the cells was calculated as follows: Accumulation Index=(fluorescence in NIH-MDR1-G185 cells in the presence of modulator)/(fluorescence in NIH-MDR1-G185 cells in absence of modulator)

Compared with “1-[5-Phenyl-2-(3-phenyl-propyl)-pentanoic acid {4-[2-hydroxy-3-(quinolin-5-yloxy)-propyl]-piperazin-4-yl}-amide]piperidine [Example 10]”, O=C(C(CCCc1ccccc1)CCCc1ccccc1)N1CCN(C2CCN(C[C@@H](O)COc3cccc4ncccc34)CC2)CC1 [Example7, 4-[5-phenyl-2-(3-phenyl-propyl)-pentanoic acid {1-[2-hydroxy-3-(quinolin-5-yloxy)-propyl]-piperazin-4-yl}-amide]piperidine] is higher in “Accumulation Index” value: 8 for the first, 9 for the second.

Going from O=C(C(CCCc1ccccc1)CCCc1ccccc1)N1CCC(NC2CCN(C[C@@H](O)COc3cccc4ncccc34)CC2)CC1 [Example 15] to O=C(CN1CCN(C[C@@H](O)COc2cccc3ncccc23)CC1)NC[C@H]1CC[C@H](C(=O)NC(CCCc2ccccc2)CCCc2ccccc2)CC1 [Example 22, N-{1-[2-(R)-hydroxy-3-(quinolin-5-yloxy)-propyl]-piperazine-4-acetyl}-trans-4-aminomethyl-1-cyclohexanecarboxylic acid [4-phenyl-1-(3-phenyl-propyl)-butyl]-amide], the “Accumulation Index” value rises from 6 to 7.

O=C(CN1CCN(C[C@@H](O)COc2cccc3ncccc23)CC1)N[C@@H](Cc1cccnc1)C(=O)N1CCC(C(=O)NC(CCCc2ccccc2)CCCc2ccccc2)CC1 [Example 27, 1-(N-{1-[2-(R)-hydroxy-3-(quinolin-5-yloxy)-propyl]-piperazine-4-acetyl}-[3-(3-pyridyl)-alanyl])-piperidine-4-carboxylic acid [4-phenyl-1(3-phenyl-propyl)-butyl]-amide] was tested, and the “Accumulation Index” value was 8.
